# Assay results reported in ChEMBL document CHEMBL1201862, “PubChem BioAssay data set” (2004).
#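 48-hour exposure; five concentrations; linearly interpolated endpoints. At the GI50, growth is halved.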 The source made the active and inactive calls. No stated cut-off is given here; in the data, active = GI50 up to about 1.1 µM and inactive = higher.
# Tests used:
# Experiment in all cases: NCI tumour cell line growth inhibition, 48 h
# [1] = tested on: LXFL 529
# [2] = tested on: DLD-1
# [3] = tested on: HOP-18
# [4] = tested on: KM-20L2
# [5] = tested on: SNB-78
# [6] = tested on: RXF 631
# [7] = tested on: DMS-273
# [8] = tested on: M19-MEL
# [9] = tested on: DMS-114
# [10] = tested on: K562
# [11] = tested on: MOLT-4
# [12] = tested on: NCI-H23
# [13] = tested on: SW-620
# [14] = tested on: HCC 2998
# [15] = tested on: OVCAR-3
# [16] = tested on: CAKI-1
# [17] = tested on: UACC-62
# [18] = tested on: HCT-116
# [19] = tested on: RXF 393
# [20] = tested on: SNB-75
# [21] = tested on: SF-295
# [22] = tested on: UACC-257
# [23] = tested on: COLO 205
# [24] = tested on: SF-268
# [25] = tested on: RPMI-8226
# [26] = tested on: HCT-15
# [27] = tested on: HOP-62
# [28] = tested on: SK-MEL-5
# [29] = tested on: IGROV-1
# [30] = tested on: TK-10
# [31] = tested on: NCI-H522
# [32] = tested on: UO-31
# [33] = tested on: LOX IMVI
# [34] = tested on: SF-539
# [35] = tested on: HOP-92
# [36] = tested on: Malme-3M
# [37] = tested on: OVCAR-4
# [38] = tested on: ACHN
# [39] = tested on: OVCAR-5
# [40] = tested on: SNB-19
# [41] = tested on: KM12
# [42] = tested on: SK-MEL-2
# [43] = tested on: SK-OV-3
# [44] = tested on: 786-0
# [45] = tested on: A498
# [46] = tested on: NCI-H226
# [47] = tested on: HL-60
# [48] = tested on: SK-MEL-28
# [49] = tested on: NCI-H460
# [50] = tested on: OVCAR-8
# [51] = tested on: HT-29
# [52] = tested on: M14
# [53] = tested on: U-251
# [54] = tested on: SR
# [55] = tested on: A549
# [56] = tested on: SN12C
# [57] = tested on: EKVX
# [58] = tested on: CCRF-CEM
# [59] = tested on: XF498
smiles,measurement,setting,value
C/C=C/C=C/c1cc2cc3c(c(O)c2c(=O)[nH]1)C1(CC3)C(=O)c2c(O)c3c(c(O)c2C1=O)C(=O)C(OC)=CC3=O (centres undefined),GI50,[1],0.44 µM (active)
same,GI50,[2],0.552 µM (active)
same,GI50,[3],0.615 µM (active)
same,GI50,[4],1.08 µM (active)
same,GI50,[5],4.11 µM (inactive)
same,GI50,[6],13.2 µM (inactive)
same,GI50,[7],0.414 µM (active)
same,GI50,[8],0.953 µM (active)
same,GI50,[9],0.337 µM (active)
CC1=C(/C(C)=N/NS(=O)(=O)c2ccc(C)cc2)Sc2ccccc2N1,GI50,[1],79.6 µM (inactive)
same,GI50,[10],37.7 µM (inactive)
same,GI50,[11],52.7 µM (inactive)
same,GI50,[12],89.3 µM (inactive)
same,GI50,[13],> 100 µM (inactive)
same,GI50,[14],> 100 µM (inactive)
same,GI50,[15],58.2 µM (inactive)
same,GI50,[16],> 100 µM (inactive)
same,GI50,[17],32.9 µM (inactive)
same,GI50,[18],> 100 µM (inactive)
same,GI50,[19],> 100 µM (inactive)
same,GI50,[20],75.7 µM (inactive)
same,GI50,[21],50.5 µM (inactive)
same,GI50,[22],65.5 µM (inactive)
same,GI50,[3],72.1 µM (inactive)
same,GI50,[4],> 100 µM (inactive)
same,GI50,[5],> 100 µM (inactive)
same,GI50,[23],48.1 µM (inactive)
same,GI50,[24],> 100 µM (inactive)
same,GI50,[25],56.8 µM (inactive)
same,GI50,[26],> 100 µM
same,GI50,[27],> 100 µM (inactive)
same,GI50,[28],47.5 µM (inactive)
same,GI50,[29],> 100 µM (inactive)
same,GI50,[6],> 100 µM (inactive)
same,GI50,[30],> 100 µM (inactive)
same,GI50,[7],78.3 µM (inactive)
same,GI50,[31],46.7 µM (inactive)
same,GI50,[32],57 µM (inactive)
same,GI50,[8],43.7 µM (inactive)
same,GI50,[33],70.8 µM (inactive)
same,GI50,[34],> 100 µM (inactive)
same,GI50,[35],81.8 µM (inactive)
same,GI50,[36],77.3 µM (inactive)
same,GI50,[37],> 100 µM (inactive)
same,GI50,[38],> 100 µM (inactive)
same,GI50,[39],> 100 µM (inactive)
same,GI50,[40],> 100 µM (inactive)
same,GI50,[9],43.4 µM (inactive)
same,GI50,[41],> 100 µM (inactive)
same,GI50,[42],94.2 µM (inactive)
same,GI50,[43],> 100 µM (inactive)
same,GI50,[44],> 100 µM (inactive)
same,GI50,[45],> 100 µM (inactive)
same,GI50,[46],> 100 µM (inactive)
same,GI50,[47],39.4 µM (inactive)
same,GI50,[48],> 100 µM (inactive)
same,GI50,[49],> 100 µM (inactive)
same,GI50,[50],> 100 µM (inactive)
same,GI50,[51],98.6 µM (inactive)
same,GI50,[52],> 100 µM (inactive)
same,GI50,[53],47.9 µM (inactive)
same,GI50,[54],59.7 µM (inactive)
same,GI50,[55],> 100 µM (inactive)
same,GI50,[56],> 100 µM (inactive)
same,GI50,[57],68.7 µM (inactive)
same,GI50,[58],32.9 µM (inactive)
O=C(/C=C/c1ccc(-c2ccccc2)cc1)c1ccccc1,GI50,[1],17.6 µM (inactive)
same,GI50,[10],27.7 µM (inactive)
same,GI50,[11],46.9 µM (inactive)
same,GI50,[12],20.1 µM (inactive)
same,GI50,[13],20.7 µM (inactive)
same,GI50,[14],18.2 µM (inactive)
same,GI50,[2],26.3 µM (inactive)
same,GI50,[16],38.7 µM (inactive)
same,GI50,[17],20.8 µM (inactive)
same,GI50,[18],14.5 µM (inactive)
same,GI50,[20],31 µM (inactive)
same,GI50,[21],30.2 µM (inactive)
same,GI50,[22],32.4 µM (inactive)
same,GI50,[3],> 100 µM (inactive)
same,GI50,[5],29 µM (inactive)
same,GI50,[23],22.3 µM (inactive)
same,GI50,[24],24.8 µM (inactive)
same,GI50,[25],19.5 µM (inactive)
same,GI50,[26],17.7 µM
same,GI50,[28],19.7 µM (inactive)
same,GI50,[29],26.7 µM (inactive)
same,GI50,[6],25.2 µM (inactive)
same,GI50,[30],22.1 µM (inactive)
same,GI50,[31],17.3 µM (inactive)
same,GI50,[32],35 µM (inactive)
same,GI50,[8],24 µM (inactive)
same,GI50,[33],15.7 µM (inactive)
same,GI50,[34],17.9 µM (inactive)
same,GI50,[35],16.6 µM (inactive)
same,GI50,[36],41.9 µM (inactive)
same,GI50,[37],29.7 µM (inactive)
same,GI50,[38],31.6 µM (inactive)
same,GI50,[39],17.3 µM (inactive)
same,GI50,[9],14.6 µM (inactive)
same,GI50,[41],17.9 µM (inactive)
same,GI50,[42],12.7 µM (inactive)
same,GI50,[43],23.7 µM (inactive)
same,GI50,[44],22.8 µM (inactive)
same,GI50,[45],20 µM (inactive)
same,GI50,[46],22.1 µM (inactive)
same,GI50,[47],39.6 µM (inactive)
same,GI50,[48],25.8 µM (inactive)
same,GI50,[49],20.6 µM (inactive)
same,GI50,[50],17.3 µM (inactive)
same,GI50,[51],21.9 µM (inactive)
same,GI50,[52],31.1 µM (inactive)
same,GI50,[53],22.9 µM (inactive)
same,GI50,[54],12.7 µM (inactive)
same,GI50,[55],19.5 µM (inactive)
same,GI50,[56],30.4 µM (inactive)
same,GI50,[57],23.3 µM (inactive)
same,GI50,[58],90.4 µM (inactive)
same,GI50,[59],25.2 µM (inactive)
